Measurements as given in PMC6013247, “Preclinical characterization of INCB053914, a novel pan-PIM kinase inhibitor, alone and in combination with anticancer agents, in models of hematologic malignancies” (PLoS ONE, 2018).

Columns and labels:
[1] = target: AXL (Homo sapiens, UniProt P30530); assay: Kinase selectivity panel; assay type: biochemical; settings: [ATP] = 1 mM
[2] = target: LOK (Homo sapiens, UniProt O94804); assay: Kinase selectivity panel; assay type: biochemical; settings: [ATP] = 1 mM
[3] = target: SYK (Homo sapiens, UniProt P43405); assay: Kinase selectivity panel; assay type: biochemical; settings: [ATP] = 1 mM
[4] = target: PIM3 (Homo sapiens, UniProt Q86V86); assay: PIM3 AlphaScreen kinase assay; assay type: biochemical; settings: 1 mM ATP; read-out: Mean (SD) IC50
Experimental: AlphaScreen assay. Reactions (20 μl) were carried out in white 384-well polystyrene plates (Greiner Bio-One, Kremsmünster, Austria) dotted with 0.8 μl of the compound in dimethylsulfoxide in the assay buffer (50 mM Tris, pH 7.5, 0.01% Tween-20, 5 mM MgCl2, 0.01% bovine serum albumin [BSA], 5 mM dithiothreitol) containing 0.05 μM Biotin-labeled Bcl-2–associated death promoter protein peptide substrate (AnaSpec, Fremont, California), 1 mM ATP, and 2.5 pM PIM1 (Invitrogen, Thermo Fisher Scientific, Waltham, Massachusetts), or 1.25 pM PIM3 (Millipore, Billerica, Massachusetts) enzyme. After 1 hour at 25°C, the reactions were stopped with 10 μl STOP Buffer (150 mM Tris, pH 7.5, 150 mM NaCl, 75 mM ethylenediaminetetraacetic acid [EDTA], 0.01% Tween-20, 0.3% BSA) supplemented with Phospho-Bad (Ser112) antibody (Cell Signaling Technology, Danvers, Massachusetts) diluted 666-fold, and Streptavidin donor beads (PerkinElmer, Waltham, Massachusetts), along with Protein-A acceptor beads (PerkinElmer, Akron, Ohio), at 15 μg/ml each. Supplementation of STOP buffer with beads and stopping the reactions were carried out under reduced light. […] After the reactions were stopped, the plates were incubated for 1 hour in the dark at room temperature and then read on a PHERAstar FS plate reader (BMG Labtech, Cary, North Carolina) under reduced light.

[5] = target: SGK2 (Homo sapiens, UniProt Q9HBY8); assay: Kinase selectivity panel; assay type: biochemical; settings: [ATP] = 1 mM
[6] = target: BRAF (Homo sapiens, UniProt P15056); assay: Kinase selectivity panel; assay type: biochemical; settings: [ATP] = 1 mM
[7] = target: GSK3B (Homo sapiens, UniProt P49841); assay: Kinase selectivity panel; assay type: biochemical; settings: [ATP] = 1 mM
[8] = target: LRRK2 (Homo sapiens, UniProt Q5S007); assay: Kinase selectivity panel; assay type: biochemical; settings: [ATP] = 1 mM
[9] = Plasma concentrations of INCB053914 in tumor-bearing mice; assay type: in vivo, mouse; settings: up to 16 hours post oral administration, MOLM-16 and KMS-12-BM tumor-bearing mice
Experimental: Human MOLM-16 (AML) and KMS-12-BM (MM) xenografts were established in SCID mice. For the evaluation of intratumoral pBAD inhibition, tumor-bearing mice (three to eight mice/group) were treated with a single oral dose of INCB053914 at doses ranging from 0 (vehicle) to 100 mg/kg. In one representative experiment, mice were sacrificed 4 hours after a single dose, and tumors were collected to analyze the levels of pBAD relative to those of vehicle-administered controls. Plasma samples were collected for pharmacokinetic analysis.
Concentrations of INCB053914 in plasma were analyzed using liquid chromatography tandem–mass spectrometry at 2, 4, 8, and 16 hours postdose (see Supporting Information, S3 File).
Blood samples from each study were collected using EDTA and centrifuged to obtain plasma. The calibration curves were prepared in mouse plasma (BioreclamationIVT, Westbury, New York). Samples (50 µl) were placed in a 2-ml square well plate (Costar, Corning, New York). Acetonitrile/methanol 9/1 v/v (550 µl) containing an internal standard was added for precipitation of the protein. The 96-well plate was covered, vortexed for 5 minutes, and centrifuged for 10 minutes at 3,000 rpm. […] The samples were analyzed for INCB053914 by liquid chromatography tandem–mass spectrometry using gradient high-performance liquid chromatography and atmospheric pressure chemical ionization.

[10] = tested on: PIM2 expression in KG-1a, Pfeiffer and KMS-12-PE cells; assay: Western blot of PIM2 expression in cell lines; assay type: cell-based; settings: KG-1a (AML)
[11] = target: PAK4 (Homo sapiens, UniProt O96013); assay: Kinase selectivity panel; assay type: biochemical; settings: [ATP] = 1 mM
[12] = target: EPHA2 (Homo sapiens, UniProt P29317); assay: Kinase selectivity panel; assay type: biochemical; settings: [ATP] = 1 mM
[13] = target: PIM1 (Homo sapiens, UniProt P11309); assay: PIM1 AlphaScreen kinase assay; assay type: biochemical; settings: 1 mM ATP; read-out: Mean (SD) IC50
Experimental: The activity of INCB053914 against the PIM1 and PIM3 kinases was measured using AlphaScreen® assays (PerkinElmer, Inc., Shelton, Connecticut), and against PIM2 kinase using a time-resolved fluorescence resonance energy transfer assay (see Supporting Information, S1 File)
AlphaScreen assay. Reactions (20 μl) were carried out in white 384-well polystyrene plates (Greiner Bio-One, Kremsmünster, Austria) dotted with 0.8 μl of the compound in dimethylsulfoxide in the assay buffer (50 mM Tris, pH 7.5, 0.01% Tween-20, 5 mM MgCl2, 0.01% bovine serum albumin [BSA], 5 mM dithiothreitol) containing 0.05 μM Biotin-labeled Bcl-2–associated death promoter protein peptide substrate (AnaSpec, Fremont, California), 1 mM ATP, and 2.5 pM PIM1 (Invitrogen, Thermo Fisher Scientific, Waltham, Massachusetts), or 1.25 pM PIM3 (Millipore, Billerica, Massachusetts) enzyme. […] After the reactions were stopped, the plates were incubated for 1 hour in the dark at room temperature and then read on a PHERAstar FS plate reader (BMG Labtech, Cary, North Carolina) under reduced light.

[14] = target: AKT1 (Homo sapiens, UniProt P31749); assay: Kinase selectivity panel; assay type: biochemical; settings: [ATP] = 1 mM
[15] = tested on: panel of 192 kinases; assay: Broader panel of 192 kinases (PerkinElmer); assay type: biochemical; settings: INCB053914 100 nM; results not shown
[16] = target: PHKG2 (Homo sapiens, UniProt P15735); assay: Kinase selectivity panel; assay type: biochemical; settings: [ATP] = 1 mM
[17] = tested on: human KG-1 AML xenografts; assay: Tumor growth in KG-1 (AML) xenograft, combination with cytarabine; assay type: in vivo, mouse; settings: KG-1 (AML) tumors
Experimental: Female immune compromised (severe combined immunodeficiency [SCID]) mice (5–9 weeks of age; Charles River Laboratories, Wilmington, Massachusetts) were inoculated with MOLM-16, KG-1, or KMS-12-BM cells. A cell suspension in Dulbecco’s phosphate-buffered saline (DPBS) (1 × 10^8 cells/ml) was mixed 1:1 (v/v) with matrigel, and 200 μl was injected subcutaneously into the flank of each mouse. […] The treatment of tumor-bearing mice started 7 to 24 days after tumor inoculation for efficacy studies and approximately 14 to 27 days after tumor inoculation for pharmacodynamic studies.
Synergistic effects of INCB053914 in combination with INCB050465, cytarabine, or itacitinib, were assessed based on the Bliss independence model [56, 57]. In this model, the expected additive effect, with the assumption that concentration dependent effects of 2 drugs (A and B) are independent, is given by the equation EIND = EA + EB – EA •EB, where 0 ≤ EIND ≤ 1; EA and EB are the magnitudes of effects of A and B alone at given concentrations.
The interaction between effects of A and B can be described by the equation Combination Index = EIND/ EOBS, where EOBS is the observed combined effect of A + B expressed as a probability (0 ≤ EOBS ≤ 1). […]

[18] = target: RSK2 (Homo sapiens, UniProt P51812); assay: Kinase selectivity panel; assay type: biochemical
[19] = target: PKCD (Homo sapiens, UniProt Q05655); assay: Kinase selectivity panel; assay type: biochemical; settings: [ATP] = 1 mM
[20] = target: LCK (Homo sapiens, UniProt P06239); assay: Kinase selectivity panel; assay type: biochemical; settings: [ATP] = 1 mM

Sequence of RSK2 (P51812 whole entry): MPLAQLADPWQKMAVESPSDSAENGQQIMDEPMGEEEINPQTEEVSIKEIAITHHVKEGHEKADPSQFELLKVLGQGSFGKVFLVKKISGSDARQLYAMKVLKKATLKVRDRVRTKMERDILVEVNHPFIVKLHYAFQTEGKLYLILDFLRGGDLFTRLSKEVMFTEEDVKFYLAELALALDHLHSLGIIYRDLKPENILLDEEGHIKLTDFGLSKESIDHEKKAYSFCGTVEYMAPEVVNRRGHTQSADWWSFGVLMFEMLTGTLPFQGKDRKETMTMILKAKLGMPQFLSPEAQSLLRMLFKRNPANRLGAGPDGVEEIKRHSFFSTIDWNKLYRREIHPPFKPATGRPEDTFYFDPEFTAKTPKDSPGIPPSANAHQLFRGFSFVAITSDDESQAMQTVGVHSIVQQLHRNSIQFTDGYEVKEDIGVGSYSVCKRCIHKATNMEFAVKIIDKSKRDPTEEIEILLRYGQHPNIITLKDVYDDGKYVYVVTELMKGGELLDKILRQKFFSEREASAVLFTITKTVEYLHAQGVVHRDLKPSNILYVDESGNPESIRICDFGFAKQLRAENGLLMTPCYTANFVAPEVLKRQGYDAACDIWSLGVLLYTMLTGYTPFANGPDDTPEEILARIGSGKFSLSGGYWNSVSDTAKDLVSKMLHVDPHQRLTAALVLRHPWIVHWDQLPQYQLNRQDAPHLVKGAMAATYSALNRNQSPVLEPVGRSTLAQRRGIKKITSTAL
Sequence of PHKG2 (P15735 whole entry): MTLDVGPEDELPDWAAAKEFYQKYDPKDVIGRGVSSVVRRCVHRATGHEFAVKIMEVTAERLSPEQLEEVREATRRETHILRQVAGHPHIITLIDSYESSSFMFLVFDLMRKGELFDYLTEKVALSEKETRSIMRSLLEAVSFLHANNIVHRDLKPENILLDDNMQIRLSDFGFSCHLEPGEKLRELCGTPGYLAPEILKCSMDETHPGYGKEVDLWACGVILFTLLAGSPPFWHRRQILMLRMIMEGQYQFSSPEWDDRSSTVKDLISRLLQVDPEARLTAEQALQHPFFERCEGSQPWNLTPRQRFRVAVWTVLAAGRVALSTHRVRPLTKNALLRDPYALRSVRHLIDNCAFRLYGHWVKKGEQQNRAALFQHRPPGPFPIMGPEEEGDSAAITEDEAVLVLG
Sequence of LOK (O94804 whole entry): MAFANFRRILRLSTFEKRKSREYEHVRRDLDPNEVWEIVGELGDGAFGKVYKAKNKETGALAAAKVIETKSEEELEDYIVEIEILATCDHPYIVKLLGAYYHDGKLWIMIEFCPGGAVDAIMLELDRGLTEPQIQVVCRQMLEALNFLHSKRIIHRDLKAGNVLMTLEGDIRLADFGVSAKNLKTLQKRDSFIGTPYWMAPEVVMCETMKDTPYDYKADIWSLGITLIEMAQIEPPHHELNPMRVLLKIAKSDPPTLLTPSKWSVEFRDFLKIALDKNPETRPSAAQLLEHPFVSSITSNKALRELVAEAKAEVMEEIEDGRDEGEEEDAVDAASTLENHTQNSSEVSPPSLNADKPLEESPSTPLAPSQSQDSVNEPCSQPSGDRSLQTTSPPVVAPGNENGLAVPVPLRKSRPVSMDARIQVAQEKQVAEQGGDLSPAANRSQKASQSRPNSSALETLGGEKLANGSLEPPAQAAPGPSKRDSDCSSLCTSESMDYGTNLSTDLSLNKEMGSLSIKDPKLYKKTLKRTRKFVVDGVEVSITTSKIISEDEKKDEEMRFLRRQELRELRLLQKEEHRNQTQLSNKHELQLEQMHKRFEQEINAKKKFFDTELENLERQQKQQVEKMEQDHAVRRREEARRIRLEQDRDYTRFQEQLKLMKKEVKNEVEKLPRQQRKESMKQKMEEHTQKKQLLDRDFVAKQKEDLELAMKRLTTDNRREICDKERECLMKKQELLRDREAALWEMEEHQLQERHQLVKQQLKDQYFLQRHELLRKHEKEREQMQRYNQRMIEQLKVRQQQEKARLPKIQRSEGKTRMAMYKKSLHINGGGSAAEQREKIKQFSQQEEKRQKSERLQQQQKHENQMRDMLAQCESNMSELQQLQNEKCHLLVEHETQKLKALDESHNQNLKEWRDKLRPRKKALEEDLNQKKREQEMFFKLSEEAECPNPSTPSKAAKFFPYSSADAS
Sequence of PAK4 (O96013 whole entry): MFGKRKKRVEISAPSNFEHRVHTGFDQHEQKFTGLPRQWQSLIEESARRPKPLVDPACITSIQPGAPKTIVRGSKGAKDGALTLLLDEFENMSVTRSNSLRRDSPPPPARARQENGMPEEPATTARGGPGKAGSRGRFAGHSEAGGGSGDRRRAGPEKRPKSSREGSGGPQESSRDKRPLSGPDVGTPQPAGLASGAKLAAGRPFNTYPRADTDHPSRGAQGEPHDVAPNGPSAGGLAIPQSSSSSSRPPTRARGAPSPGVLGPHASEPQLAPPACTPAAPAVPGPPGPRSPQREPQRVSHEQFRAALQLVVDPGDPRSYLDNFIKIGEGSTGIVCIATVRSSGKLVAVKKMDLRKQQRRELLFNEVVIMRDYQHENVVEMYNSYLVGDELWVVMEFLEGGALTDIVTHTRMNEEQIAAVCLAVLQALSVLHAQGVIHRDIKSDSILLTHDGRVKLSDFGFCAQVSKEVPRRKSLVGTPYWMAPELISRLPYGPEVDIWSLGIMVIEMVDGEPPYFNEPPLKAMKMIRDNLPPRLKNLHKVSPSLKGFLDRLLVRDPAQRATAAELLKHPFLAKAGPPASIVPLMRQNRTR
Sequence of PIM1 (P11309 whole entry): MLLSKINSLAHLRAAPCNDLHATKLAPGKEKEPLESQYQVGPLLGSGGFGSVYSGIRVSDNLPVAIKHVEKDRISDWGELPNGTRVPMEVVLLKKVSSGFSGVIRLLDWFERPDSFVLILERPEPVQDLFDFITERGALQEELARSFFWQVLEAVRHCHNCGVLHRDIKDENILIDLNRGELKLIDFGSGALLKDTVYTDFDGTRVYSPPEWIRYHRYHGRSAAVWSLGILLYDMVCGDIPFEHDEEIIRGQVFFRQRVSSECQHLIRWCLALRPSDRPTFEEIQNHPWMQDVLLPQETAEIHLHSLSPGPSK
Sequence of SGK2 (Q9HBY8 whole entry, species assumed): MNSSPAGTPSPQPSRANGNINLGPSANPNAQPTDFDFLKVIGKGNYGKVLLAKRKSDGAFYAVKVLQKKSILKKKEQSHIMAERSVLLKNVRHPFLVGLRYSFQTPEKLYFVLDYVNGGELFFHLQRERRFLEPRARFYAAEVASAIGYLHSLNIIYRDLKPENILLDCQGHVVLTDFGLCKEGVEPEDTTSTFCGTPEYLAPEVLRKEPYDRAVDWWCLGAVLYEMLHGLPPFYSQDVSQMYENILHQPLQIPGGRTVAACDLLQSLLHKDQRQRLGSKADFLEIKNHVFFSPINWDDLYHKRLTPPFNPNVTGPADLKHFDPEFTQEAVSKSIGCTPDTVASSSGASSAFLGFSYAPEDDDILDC
Sequence of AXL (P30530 26-894): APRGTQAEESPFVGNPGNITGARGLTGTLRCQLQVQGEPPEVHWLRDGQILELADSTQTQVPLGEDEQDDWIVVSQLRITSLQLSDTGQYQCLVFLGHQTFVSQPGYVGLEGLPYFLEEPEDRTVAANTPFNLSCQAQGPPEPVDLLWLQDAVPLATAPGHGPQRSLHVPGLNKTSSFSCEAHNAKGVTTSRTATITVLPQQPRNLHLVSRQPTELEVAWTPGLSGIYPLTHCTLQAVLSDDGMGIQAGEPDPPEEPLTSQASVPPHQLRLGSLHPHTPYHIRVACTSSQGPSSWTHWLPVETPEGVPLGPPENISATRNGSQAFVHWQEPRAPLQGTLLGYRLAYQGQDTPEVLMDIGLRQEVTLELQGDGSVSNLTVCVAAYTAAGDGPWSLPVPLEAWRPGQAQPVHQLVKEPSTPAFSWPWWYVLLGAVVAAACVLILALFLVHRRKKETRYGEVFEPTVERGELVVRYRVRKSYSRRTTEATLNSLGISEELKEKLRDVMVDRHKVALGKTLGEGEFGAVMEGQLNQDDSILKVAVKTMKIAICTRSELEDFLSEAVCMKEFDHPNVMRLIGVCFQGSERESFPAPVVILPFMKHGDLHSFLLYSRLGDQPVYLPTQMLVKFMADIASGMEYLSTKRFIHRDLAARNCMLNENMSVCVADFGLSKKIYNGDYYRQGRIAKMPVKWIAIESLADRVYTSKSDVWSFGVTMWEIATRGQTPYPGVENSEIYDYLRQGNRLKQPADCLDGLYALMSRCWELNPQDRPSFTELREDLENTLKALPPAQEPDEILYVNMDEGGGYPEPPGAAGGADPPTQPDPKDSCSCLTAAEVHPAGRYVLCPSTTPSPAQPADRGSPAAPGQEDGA
Sequence of GSK3B (P49841 whole entry): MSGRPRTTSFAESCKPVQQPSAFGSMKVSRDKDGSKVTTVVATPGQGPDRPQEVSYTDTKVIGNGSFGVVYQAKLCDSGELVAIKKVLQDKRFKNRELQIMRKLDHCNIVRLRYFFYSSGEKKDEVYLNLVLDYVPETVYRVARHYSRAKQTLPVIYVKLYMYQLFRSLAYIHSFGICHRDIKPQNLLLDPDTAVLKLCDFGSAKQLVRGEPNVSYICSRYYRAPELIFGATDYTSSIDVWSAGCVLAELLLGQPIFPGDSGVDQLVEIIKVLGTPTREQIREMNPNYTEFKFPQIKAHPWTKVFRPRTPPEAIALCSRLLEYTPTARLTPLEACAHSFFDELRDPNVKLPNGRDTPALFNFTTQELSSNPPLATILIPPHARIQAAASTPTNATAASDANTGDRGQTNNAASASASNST

Question: What does the source list for `C[C@H]1CN(c2c(NC(=O)c3ccc(F)c(-c4c(F)cccc4F)n3)cnc3c2CC[C@H]3O)C[C@@H](N)[C@@H]1O.O=P(O)(O)O` [INCB053914, N-((R)-4-((3R,4R,5S)-3-amino-4-hydroxy-5-methylpiperidin-1-yl)-7-hydroxy-6,7-dihydro-5H-cyclopenta[b]pyridin-3-yl)-6-(2,6-difluorophenyl)-5-fluoropicolinamide phosphate]?
Answer: IC50 [1]: > 20 µM; IC50 [2]: > 20 µM; IC50 [3]: > 20 µM; IC50 [4]: 0.00012 µM; IC50 [5]: > 20 µM; IC50 [6]: > 20 µM; IC50 [7]: > 20 µM; IC50 [8]: > 20 µM; plasma concentrations versus dose [9]: suggested dose proportionality; PIM2 expression [10]: increased PIM2 expression; IC50 [11]: > 20 µM; IC50 [12]: > 20 µM; IC50 [13]: 0.00024 µM; IC50 [14]: > 20 µM; kinases significantly inhibited in the panel of 192 kinases [15]: no kinase other than Per-Arnt-Sim (PAS) kinase was significantly inhibited; IC50 [16]: > 20 µM; tumor growth, single agent [17]: inhibited; IC50 ([18]; [ATP] = 1 mM): 7.12 µM; IC50 ([18]; as given in the text): 7.1 µM; IC50 [19]: > 20 µM; IC50 [20]: > 20 µM
